Source: patent publication US8440632B2, “Protopanaxadiol-type ginsenoside compositions and uses thereof” (Raptor Therapeutics Inc., priority 2008, dated 2013)

Legend:
[1] = system: alcohol dehydrogenase (ADH); assay: Alcohol dehydrogenase (ADH) activity, colorimetric assay; format: biochemical; details: 5, 50 or 500 μg/mL, relative to ADH activity in the absence of ginsenoside (FIG. 1)
Description: Ginsenosides Rb1, Rb2, Rc, Rd, Re and Rg1 were obtained from ChromaDex Inc., Irvine, Calif., USA. The ginsenosides were dissolved in DMSO to prepare a stock solution. Prior to performing an activity assay, portions of a ginsenosides stock solution were diluted in aqueous reaction buffer solution and from which samples were taken and assayed for activity.
ADH activity was measured in a colorimetric assay as described in Gibla and Gonzalex-Durante, J. Biochem. Biophys. Methods 1993, 26, 87-93, the contents of which are incorporated by reference herein in its entirety.

[2] = target: T1, aldehyde dehydrogenase (ALDH) (Saccharomyces cerevisiae, UniProt P46367); assay: Aldehyde dehydrogenase (ALDH) activity assay, conversion of acetaldehyde into acetic acid; format: biochemical; details: 5, 50 or 500 μg/mL, relative to ALDH activity in the absence of ginsenoside (FIG. 3)
T1 construct: purchased Sigma-Aldrich A 6338
T1 sequence (P46367 25-519): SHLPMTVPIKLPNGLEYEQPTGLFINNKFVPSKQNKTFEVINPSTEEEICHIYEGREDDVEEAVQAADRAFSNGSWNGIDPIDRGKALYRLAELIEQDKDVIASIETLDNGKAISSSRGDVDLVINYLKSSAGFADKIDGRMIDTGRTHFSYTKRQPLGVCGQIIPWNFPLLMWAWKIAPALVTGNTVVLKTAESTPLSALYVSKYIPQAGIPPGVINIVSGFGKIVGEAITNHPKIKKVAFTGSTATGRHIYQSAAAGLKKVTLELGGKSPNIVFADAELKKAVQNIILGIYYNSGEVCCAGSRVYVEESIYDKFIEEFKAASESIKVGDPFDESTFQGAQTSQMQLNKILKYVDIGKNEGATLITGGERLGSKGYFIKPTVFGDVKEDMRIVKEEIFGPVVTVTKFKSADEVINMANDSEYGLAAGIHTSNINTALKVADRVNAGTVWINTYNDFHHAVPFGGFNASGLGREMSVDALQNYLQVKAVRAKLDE
Description: Stock solutions of ginsenosides Rb1, Rb2, Rc, Rd, Re and Rg1 in DMSO as described above, were prepared. ALDH was obtained from Sigma-Aldrich (product no. A 6338). Enzyme activity assays were performed in vitro according to instructions supplied by the vendor as modified by the addition of test substances, which is based on assay described in Bostian et al., Biochemical Journal 1978, 173, 773-786, the contents of which are incorporated by reference herein in their entirety. This assay measures the conversion of acetaldehyde into acetic acid via […] by ALDH catalysis.

## CC(C)=CCC[C@](C)(O[C@@H]1O[C@H](CO[C@@H]2O[C@H](CO)[C@@H](O)[C@H](O)[C@H]2O)[C@@H](O)[C@H](O)[C@H]1O)[C@H]1CC[C@]2(C)[C@@H]1[C@H](O)C[C@@H]1[C@@]3(C)CC[C@H](O[C@@H]4O[C@H](CO)[C@@H](O)[C@H](O)[C@H]4O[C@@H]4O[C@H](CO)[C@@H](O)[C@H](O)[C@H]4O)C(C)(C)[C@@H]3CC[C@]12C [ginsenoside Rb1]
[1]
  effect on ADH activity: reduced ADH activity
[2]
  effect on ALDH activity: increased ALDH activity

## CC(C)=CCC[C@](C)(O[C@@H]1O[C@H](CO[C@@H]2OC[C@H](O)[C@H](O)[C@H]2O)[C@@H](O)[C@H](O)[C@H]1O)[C@H]1CC[C@]2(C)[C@@H]1[C@H](O)C[C@@H]1[C@@]3(C)CC[C@H](O[C@@H]4O[C@H](CO)[C@@H](O)[C@H](O)[C@H]4O[C@@H]4O[C@H](CO)[C@@H](O)[C@H](O)[C@H]4O)C(C)(C)[C@@H]3CC[C@]12C [ginsenoside Rb2]
[1]
  effect on ADH activity: reduced ADH activity
[2]
  effect on ALDH activity: increased ALDH activity

## CC(C)=CCC[C@](C)(O[C@@H]1O[C@H](CO[C@@H]2O[C@@H](CO)[C@H](O)[C@H]2O)[C@@H](O)[C@H](O)[C@H]1O)[C@H]1CC[C@]2(C)[C@@H]1[C@H](O)C[C@@H]1[C@@]3(C)CC[C@H](O[C@@H]4O[C@H](CO)[C@@H](O)[C@H](O)[C@H]4O[C@@H]4O[C@H](CO)[C@@H](O)[C@H](O)[C@H]4O)C(C)(C)[C@@H]3CC[C@]12C [ginsenoside Rc]
[1]
  effect on ADH activity: reduced ADH activity
[2]
  effect on ALDH activity: increased ALDH activity

## CC(C)=CCC[C@](C)(O[C@@H]1O[C@H](CO)[C@@H](O)[C@H](O)[C@H]1O)[C@H]1CC[C@]2(C)[C@@H]1[C@H](O)C[C@@H]1[C@@]3(C)CC[C@H](O[C@@H]4O[C@H](CO)[C@@H](O)[C@H](O)[C@H]4O[C@@H]4O[C@H](CO)[C@@H](O)[C@H](O)[C@H]4O)C(C)(C)[C@@H]3CC[C@]12C [ginsenoside Rd]
[1]
  effect on ADH activity: reduced ADH activity
[2]
  effect on ALDH activity: increased ALDH activity

## CC(C)=CCC[C@](C)(O[C@@H]1O[C@H](CO)[C@@H](O)[C@H](O)[C@H]1O)[C@H]1CC[C@]2(C)[C@@H]1[C@H](O)C[C@@H]1[C@@]3(C)CC[C@H](O)C(C)(C)[C@@H]3[C@@H](O[C@@H]3O[C@H](CO)[C@@H](O)[C@H](O)[C@H]3O[C@@H]3O[C@@H](C)[C@H](O)[C@@H](O)[C@H]3O)C[C@]12C [ginsenoside Re, reference compound]
[1]
  effect on ADH activity: did not have a significant effect on ADH activity
[2]
  effect on ALDH activity: did not have a significant effect on ALDH activity

## CC(C)=CCC[C@](C)(O[C@@H]1O[C@H](CO)[C@@H](O)[C@H](O)[C@H]1O)[C@H]1CC[C@]2(C)[C@@H]1[C@H](O)C[C@@H]1[C@@]3(C)CC[C@H](O)C(C)(C)[C@@H]3[C@@H](O[C@@H]3O[C@H](CO)[C@@H](O)[C@H](O)[C@H]3O)C[C@]12C [ginsenoside Rg1, reference compound]
[1]
  effect on ADH activity: did not have a significant effect on ADH activity
[2]
  effect on ALDH activity: did not have a significant effect on ALDH activity
